Consider 3 molecules from EP2457907A1, “Flavagline derivatives as neuroprotective agents” (Université de Strasbourg, priority 2010, dated 2012).

The test system of assay [1] is primary rat mesencephalic neurons. Put plainly: Neuroprotection against MPP+-induced apoptosis (in vitro model of Parkinson's disease), TH immunostaining. In kind it is cell-based. Conditions: 3µM MPP+; numbers only in Figure 4. As to the method:
The neuroprotectant activity was tested in a cellular model of Parkinson's disease on primary mesencephalic cultures of rat embryos treated by MPP^+ (3µM) (Hoglinger et al. 2003).
Postmitotic dopaminergic neurons from the ventral mesencephalon of embryonic day 15.5 Wistar rat embryos (CERJ, Le Genest St. Isle, France) were dissociated mechanically, plated onto polyethylenimine-precoated 24-well culture plates, grown in N5 medium supplemented with 5 mM glucose, 5% horse serum and 2.5% fetal calf serum, as described previously (Michel et al., 1989). After 3 days, fetal calf serum was reduced to 0.5% to limit astrocyte proliferation. All experiments were initiated at day 5 in N5 medium containing 1 % horse serum and 0.1 % fetal calf serum. For each experiment MPP^+ (Sigma) was diluted to 10 mM in H2O. Cells were fixed with 4% formaldehyde for immunocytochemistry. Dopaminergic neurons were visualized by immunocytochemical detection of tyrosine hydroxylase (TH).

In assay [2] the test system is primary cultures of mouse cerebellar neurons. Put plainly: Neuroprotection against cisplatin-induced apoptosis (MTT assay). Format: cell-based. As to conditions: flavagline derivative 1 nM, cisplatin 2.5 µM, 48 hours; numbers only in Figure 3. The method, then: The in vitro neuroprotectant activity against neurotoxicity of an antineoplastic agent was assayed on apoptosis induced by cisplatin (2.5 µM) in primary cultures of mouse cerebellar neurons. Neuronal survival was measured by MTT assay.
Cerebellar granular neurons were dissected from 7-day old mice as described previously (Benosman et al., 2007). Briefly, after enzymatic and mechanical dissociation, cells were plated at a density of 500 cells/mm^2 on 0.1 mg/ml polyornithine-pre-coated culture dishes and were grown at 37 °C in a humidified atmosphere (5% CO2 / 95% air). Plating culture medium contained DMEM (Dulbecco's modified Eagle's medium; Life Technology) supplemented with 10% heat-inactivated horse serum (Life Technology), 100 nM insulin (Life Technology), […] gentamycin (Life Technology) and 25 mM KCl. […]
Mature neurons were cultured in 96-well culture dishes (Costar) and incubated for 48 hours in presence of cisplatine (2.5 µM) and flavagline derivative (1 nM) (which were both added into the medium at the same time). […] Plates were stirred at room temperature to ensure that all crystals were dissolved and read on a Bio-Rad 680 micro-ELISA plate-reader, using a test wavelength of 490 nm and a non-specific wavelength of 650 nm for background absorbency. […]

Turning to `COc1cc(OC)c2c(c1)OC1(c3ccc(Br)cc3)C(c3cccc(F)c3)CC(NC(=O)N(C)C)C21O` (centres unmarked) [FL37], the “protection against MPP+-induced neurodegeneration (TH-positive dopaminergic neurons)” value (shortened to “protection … (TH-positive dopaminergic neurons)”) in assay [1] is “able to prevent or limit neuronal cell degeneration”. Further, the “protection of neurons against apoptosis induced by cisplatin (neuronal survival)” value in assay [2] is “able to prevent or limit neuronal cell apoptosis”.
On to `COc1cc(OC)c2c(c1)OC1(c3ccc(Br)cc3)C(c3ccccc3)CC(NC=O)C21O` (centres unmarked) [FL23, N-(3a-(4-Bromophenyl)-8b-hydroxy-6,8-dimethoxy-3-phenyl-2,3,3a,8b-tetrahydro-1H-cyclopenta[b]benzofuran-1-yl)formamide], for which, in assay [1], the “protection … (TH-positive dopaminergic neurons)” value is “able to prevent or limit neuronal cell degeneration”. In assay [2], the “protection of neurons against apoptosis induced by cisplatin (neuronal survival)” value is “able to prevent or limit neuronal cell apoptosis”.
As to `COc1cc(OC)c2c(c1)OC1(c3ccc(Br)cc3)C(c3cccc(F)c3)CC(NC=O)C21O` (centres unmarked) [FL32, N-(3a-(4-Bromophenyl)-3-(3-fluorophenyl)-8b-hydroxy-6,8-dimethoxy-2,3,3a,8b-tetrahydro-1H-cyclopenta[b]benzofuran-1-yl)formamide], the “protection … (TH-positive dopaminergic neurons)” value in assay [1] is listed as “able to prevent or limit neuronal cell degeneration”.
